Source: patent US20150315188A1, “COMPOUNDS AND METHODS FOR TREATMENT OF HYPERTENSION” (MEDIVATION TECHNOLOGIES, INC., priority 2012, published 2015)
Where “and” joins values, the source holds several entries; their conditions need not be identical. Equal entries are not always repeated.

What was measured:
Parameters in all cases: purchased Milipore (Millipore)
[1] = target: T1, Human adrenergic α2B receptor (Homo sapiens, UniProt P18089); test: Radioligand binding, adrenergic α2B (Protocol Group B); conditions: Protocol Group B; for Percentage inhibition of ligand binding, Adrenergic α2B (10 nM): 0.01 µM; for Percentage inhibition of ligand binding, Adrenergic α2B (30 nM) / inhibition at 0.03 µM: 30 nM compound; for Percentage inhibition of ligand binding, Adrenergic α2B (30 nM): 0.03 µM; for inhibition at 0.03 µM: read-out: Percentage inhibition of ligand binding, Adrenergic α2B (30 nM)
T1 sequence (P18089 1-450): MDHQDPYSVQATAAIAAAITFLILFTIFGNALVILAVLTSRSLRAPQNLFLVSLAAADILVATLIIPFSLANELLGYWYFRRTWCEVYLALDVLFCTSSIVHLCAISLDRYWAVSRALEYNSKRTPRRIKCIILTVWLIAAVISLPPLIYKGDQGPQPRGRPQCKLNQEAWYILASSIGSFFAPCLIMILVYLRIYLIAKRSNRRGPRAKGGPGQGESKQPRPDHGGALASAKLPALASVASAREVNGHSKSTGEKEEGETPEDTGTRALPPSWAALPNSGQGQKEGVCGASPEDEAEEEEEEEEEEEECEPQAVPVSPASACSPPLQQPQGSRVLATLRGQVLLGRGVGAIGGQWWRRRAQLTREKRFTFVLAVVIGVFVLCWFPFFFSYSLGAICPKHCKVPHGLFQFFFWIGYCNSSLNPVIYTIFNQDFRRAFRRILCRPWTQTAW
Method: To evaluate the activity of compounds in radioligand binding assays, Human adrenergic α2B receptor obtained from recombinant cell membrane from Milipore. Binding experiments were carried out in Tris-HCl buffer (50 mM Tris-HCl buffer, pH 7.4, 5 mM Mgcl2, 1 mM Cacl2, 0.2% BSA) as recommended by Milipore. […] Non-specific binding was estimated in the presence of 10 μM Rauwolscine. […] Compounds were screened at various concentrations, using 1% DMSO as vehicle. Biochemical assay results are presented as the percent Inhibition of specific binding in Table B1b, or estimated Ki values in Table B1c.

[2] = target: T2, Human adrenergic α2A receptor (Homo sapiens, UniProt P08913); test: Radioligand binding, adrenergic α2A (Protocol Group B); conditions: Protocol Group B; for Percentage inhibition of ligand binding, Adrenergic α2A (0.1 μM): 0.1 μM compound; for Percentage inhibition of ligand binding, Adrenergic α2A (0.3 μM) / inhibition at 0.3 µM: 0.3 μM compound; for inhibition at 0.3 µM: read-out: Percentage inhibition of ligand binding, Adrenergic α2A (0.3 μM)
T2 sequence (P08913 1-465): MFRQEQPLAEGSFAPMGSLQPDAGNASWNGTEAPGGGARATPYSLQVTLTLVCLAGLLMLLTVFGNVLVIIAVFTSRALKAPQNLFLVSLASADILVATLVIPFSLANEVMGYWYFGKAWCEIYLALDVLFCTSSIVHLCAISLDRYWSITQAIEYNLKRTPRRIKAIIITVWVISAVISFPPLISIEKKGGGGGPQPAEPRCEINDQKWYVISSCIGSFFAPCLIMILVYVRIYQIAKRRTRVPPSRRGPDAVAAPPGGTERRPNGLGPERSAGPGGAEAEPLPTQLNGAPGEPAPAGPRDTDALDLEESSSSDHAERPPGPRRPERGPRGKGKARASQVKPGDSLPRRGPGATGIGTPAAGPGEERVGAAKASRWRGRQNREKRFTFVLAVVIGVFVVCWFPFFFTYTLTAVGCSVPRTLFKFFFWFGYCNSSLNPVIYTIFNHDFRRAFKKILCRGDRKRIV
Method: To evaluate the activity of compounds in radioligand binding assays, Human adrenergic α2A receptor obtained from recombinant cell membrane from Milipore. Binding experiments were carried out in Tris-HCl buffer (50 mM Tris-HCl buffer, pH 7.4, 5 mM Mgcl2, 1 mM Cacl2, 0.2% BSA) as recommended by Milipore. Compounds were incubated with 2 nM [^3H]MK-912 for 60 min at 25° C. Non-specific binding was estimated in the presence of 10 μM Rauwolscine. Receptor proteins were harvested on 0.33% PEI(poly-ethylenemine) soaked GFC filter mat, the specifically bound [^3H]MK-912 were counted to determine total binding. Compounds were screened at various concentrations, using 1% DMSO as vehicle. percent inhibition of specific binding was determined. Biochemical assay results are presented as the percent Inhibition of specific binding in Table B1b, or estimated Ki values in Table B1c.

[3] = target: T3, Human adrenergic α1B receptor (Homo sapiens, UniProt P35368); test: Radioligand binding, adrenergic α1B (Protocol Group B); conditions: Protocol Group B; for Percentage inhibition of ligand binding, Adrenergic α1B (0.1 μM) / inhibition at 0.1 µM: 0.1 μM compound; for Percentage inhibition of ligand binding, Adrenergic α1B (0.3 μM) / inhibition at 0.3 µM: 0.3 μM compound; for inhibition at 0.1 µM: read-out: Percentage inhibition of ligand binding, Adrenergic α1B (0.1 μM); for inhibition at 0.3 µM: read-out: Percentage inhibition of ligand binding, Adrenergic α1B (0.3 μM)
T3 sequence (P35368 1-520): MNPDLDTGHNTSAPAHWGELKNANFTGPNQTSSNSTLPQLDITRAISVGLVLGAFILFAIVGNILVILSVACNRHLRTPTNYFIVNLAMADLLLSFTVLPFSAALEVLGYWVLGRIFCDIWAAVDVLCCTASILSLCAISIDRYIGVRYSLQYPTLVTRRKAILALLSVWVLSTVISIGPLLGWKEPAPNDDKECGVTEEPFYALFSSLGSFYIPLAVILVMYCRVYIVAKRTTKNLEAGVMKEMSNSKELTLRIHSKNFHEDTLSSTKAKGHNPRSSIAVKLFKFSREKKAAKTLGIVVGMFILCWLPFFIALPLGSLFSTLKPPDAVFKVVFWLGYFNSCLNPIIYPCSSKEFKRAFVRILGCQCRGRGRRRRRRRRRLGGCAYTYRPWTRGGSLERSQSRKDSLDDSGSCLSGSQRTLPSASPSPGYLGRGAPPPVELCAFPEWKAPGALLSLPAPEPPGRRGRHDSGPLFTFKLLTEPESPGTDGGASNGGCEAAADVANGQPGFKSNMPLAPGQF
Method: To evaluate the activity of compounds in radioligand binding assays, Human adrenergic α1B receptor obtained from recombinant cell membrane from Milipore. Binding experiments were carried out in Tris-HCl buffer (50 mM Tris-HCl buffer, pH 7.4, 10 mM Mgcl2, 1 mM EDTA) as recommended by Milipore. Compounds were incubated with 0.3 nM [^3H]Prazosin for 60 min at 25° C. Non-specific binding was estimated in the presence of 10 μM prazosin. Receptor proteins were harvested on 0.33% PEI(poly-ethylenemine) soaked GFC filter mat, the specifically bound [^3H]Prazosin were counted to determine total binding. Compounds were screened at various concentrations, using 1% DMSO as vehicle. percent inhibition of specific binding was determined. Biochemical assay results are presented as the percent Inhibition of specific binding in Table B1b, or estimated Ki values in Table B1c.

Percentage inhibition of ligand binding, Adrenergic α2B (10 nM) ([1]; 10 nM compound) [%] | Percentage inhibition of ligand binding, Adrenergic α2B (30 nM) [1] [%] | Percentage inhibition of ligand binding, Adrenergic α2B (0.1 μM) ([1]; 0.1 μM compound) [%] | Percentage inhibition of ligand binding, Adrenergic α2A (0.1 μM) [2] [%] | Percentage inhibition of ligand binding, Adrenergic α2A (0.3 μM) [2] [%] | Percentage inhibition of ligand binding, Adrenergic α1B (0.1 μM) [3] | Percentage inhibition of ligand binding, Adrenergic α1B (0.3 μM) [3] [%] | inhibition at 0.01 µM ([1]; 10 nM compound, read-out: Percentage inhibition of ligand binding, Adrenergic α2B (10 nM)) [%] | inhibition at 0.03 µM [1] [%] | inhibition at 0.3 µM [2] [%] | inhibition at 0.1 µM [3] [%] | inhibition at 0.3 µM [3] [%] | inhibition at 0.1 µM ([1]; 0.1 μM compound, read-out: Percentage inhibition of ligand binding, Adrenergic α2B (0.1 μM)) [%] | Ki ([1]; estimated Ki, read-out: Ki α2B) [nM] | Structure (SMILES)
19 | 48 | 68 | 14 | 14 | – | – | – | – | – | 17 | 25 | – | – | Cc1ccc2c(c1)c1c(n2CC(C)(O)c2cccnc2)CC(CO)N(C)C1 (single isomer, unassigned) [15a]
6 | −11 | 16 | 1 | 0 | 12% | 16 | – | – | – | – | – | – | – | Cc1ccc2c(c1)c1c(n2CC(C)(O)c2cccnc2)CC(CO)N(C)C1 (single isomer, unassigned) [15b]
−1 | −14 | 1 | 8 | – | 16% | – | – | – | 9 | – | 9 | – | – | Cc1ccc2c(c1)c1c(n2CC(C)(O)c2cccnc2)CCN(C)C1CO (single isomer, unassigned) [16a]
4 | −11 | 7 | −2 | 10 | −3% | 5 | – | – | – | – | – | – | – | Cc1ccc2c(c1)c1c(n2CC(C)(O)c2cccnc2)CCN(C)C1CO (single isomer, unassigned) [16b]

The remaining lines, values behind:

Structure (SMILES) | Percentage inhibition of ligand binding, Adrenergic α2B (10 nM) ([1]; 10 nM compound) [%] | Percentage inhibition of ligand binding, Adrenergic α2B (30 nM) [1] [%] | Percentage inhibition of ligand binding, Adrenergic α2B (0.1 μM) ([1]; 0.1 μM compound) [%] | Percentage inhibition of ligand binding, Adrenergic α2A (0.1 μM) [2] [%] | Percentage inhibition of ligand binding, Adrenergic α2A (0.3 μM) [2] [%] | Percentage inhibition of ligand binding, Adrenergic α1B (0.1 μM) [3] | Percentage inhibition of ligand binding, Adrenergic α1B (0.3 μM) [3] [%] | inhibition at 0.01 µM ([1]; 10 nM compound, read-out: Percentage inhibition of ligand binding, Adrenergic α2B (10 nM)) [%] | inhibition at 0.03 µM [1] [%] | inhibition at 0.3 µM [2] [%] | inhibition at 0.1 µM [3] [%] | inhibition at 0.3 µM [3] [%] | inhibition at 0.1 µM ([1]; 0.1 μM compound, read-out: Percentage inhibition of ligand binding, Adrenergic α2B (0.1 μM)) [%] | Ki ([1]; estimated Ki, read-out: Ki α2B) [nM]
Cc1ccc2c(c1)c1c(n2CC(OC(N)=O)c2ccncc2)CCN(C)C1 (single isomer, unassigned) [8a] | 12 | 21 | 48 | 20 | 14 | 18% | 22 | – | – | – | – | – | – | –
Cc1ccc2c(c1)c1c(n2CC(OC(N)=O)c2ccncc2)CCN(C)C1 (single isomer, unassigned) [8b] | – | – | 26 | 7 | – | – | – | 13 | 27 | 10 | 9 | 14 | – | –
Cc1ccc2c(c1)c1c(n2CC(C)(O)c2ccncc2)CCN2CCCC12 (single isomer, unassigned) [13c] | −1 | – | – | 11 | – | 9% | 28 | – | 30 | 21 | – | – | 74 | –
Cc1ccc2c(c1)c1c(n2CC(C)(O)c2ccncc2)CCN2CCCC12 (single isomer, unassigned) [13d] | 7 | 27 | 76 | 3 | 20 | −7% | 9 | – | – | – | – | – | – | –
Cc1ccc2c(c1)c1c(n2CC(O)c2ccncc2)CCN2CCCC12 (single isomer, unassigned) [Compound No. 178a] | – | – | – | – | – | 73% | – | – | – | – | – | – | – | –
Cc1ccc2c(c1)c1c(n2CC(O)c2ccncc2)CCN2CCCC12 (single isomer, unassigned) [Compound No. 178b] | – | – | – | 55 | – | 69% | – | – | – | – | – | – | – | –
Cc1ccc2c(c1)c1c(n2CC(O)c2ccncc2)CCN2CCCC12 (single isomer, unassigned) [Compound No. 178c] | – | – | – | 35 | – | 94% and 96% | – | – | – | – | – | – | – | –
CC(O)(Cn1c2c(c3cc(F)ccc31)C1CCCN1CC2)c1cccnc1 (centres unmarked) [compound 51] | – | – | – | – | – | – | – | – | – | – | – | – | – | 1.58
